{
  "source": "patent US20020137929A1",
  "about": "“1 - (3-heterocyclylphenyl) isothiourea, -isourea, -guanidine and -amidine herbicidal agents” (Intellectual Property Department, BASF Aktiengesellschaft, priority 1998, published 2002)",
  "key": {"[1]": {"system": "ORYSAT (Rice, Tebonnet)", "assay": "Preemergence herbicidal evaluation", "format": "in vivo, Oryza sativa, (L.) Tebonnet", "settings": "rated 4-5 weeks after treatment", "excerpt": "(§1) Results of herbicide evaluation are expressed on a rating scale (0-9). The scale is based upon a visual observation of plant stand, vigor, malformation, size, chlorosis and overall plant appearance as compared with a control.\n(§2) The preemergence herbicidal activity of the test compounds of the present invention is exemplified by the following tests in which the seeds of a variety of monocotyledonous and dicotyledonous plants are separately mixed with potting soil and planted on top of approximately one inch of soil in separate pint cups. After planting, the cups are sprayed with the selected aqueous acetone solution containing test compound in sufficient quantity to provide the equivalent of about 0.0156 to 0.500 kg per hectare of test compound per cup. The treated cups are then placed on greenhouse benches, watered and cared for in accordance with conventional greenhouse procedures. From four to five weeks after treatment, the tests are terminated and each cup is examined and rated according to the rating system provided in Example 37.\n(§3) The compounds evaluated are reported by compound number given in Example 37."}, "[2]": {"system": "ECHORC (Watergrass (Calif.))", "assay": "Preemergence weed control under flooded paddy conditions", "format": "in vivo, Echinochloa oryzoides", "settings": "rated 3-4 weeks after treatment", "experimental": "as §1\n(§4) Preemergence herbicidal activity under flooded paddy conditions is determined as follows: plant seeds or propagating organs are planted in the top 0.5 cm of silt loam soil in 32 oz. plastic containers with a diameter of 10.5 cm and no drainage holes. Water is added to these containers and maintained at 1.5 to 3 cm above the soil surface for the duration of the experiment. The test compounds are applied as aqueous/acetone mixtures 50/50 v/v pipetted directly into the flood water to give the equivalent of about 0.0313 to 0.500 kg/ha of active ingredient. The treated containers are placed on greenhouse benches and cared for in accordance with conventional greenhouse procedures. Three to four weeks after treatment, the test is terminated and each container is examined and herbicidal effect rated according to the rating system provided in Example 37. The compounds evaluated are reported by compound number given in Example 37.\n(§5) Plant species employed in this example are reported by header abbreviation, common name and scientific name."}, "[3]": {"system": "CYPSE (Flatsedge)", "assay": "Preemergence weed control under flooded paddy conditions", "format": "in vivo, Cyperus serotinus", "settings": "rated 3-4 weeks after treatment", "in_short": "(§6)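 Seeds or propagules sown in top 0.5 cm of silt loam soil, flooded 1.5 to 3 cm above surface throughout. Compound in 50/50 v/v aqueous/acetone pipetted into flood water at about 0.0313 to 0.500 kg/ha. Visual 0-9 rating versus control after three to four weeks in greenhouse.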"}, "[4]": {"system": "GALAP (Galium)", "assay": "Postemergence herbicidal evaluation", "format": "in vivo, Galium aparine", "settings": "postemergence", "experimental": "(§7) In the tests, seedling plants are grown in jiffy flats for about two weeks. The test compounds are dispersed in 50/50 acetone/water mixtures containing 0.5% TWEEN®20, a polyoxyethylene sorbitan monolaurate surfactant of Atlas Chemical Industries, in sufficient quantities to provide the equivalent of about 0.0156 kg to 0.500 kg per hectare of active compound when applied to the plants through a spray nozzle operating at 40 psi for a predetermined time. After spraying, the plants are placed on greenhouse benches and are cared for in accordance with conventional greenhouse procedures. From four to five weeks after treatment, the seedling plants are examined and rated according to the rating system set forth below. Where more than one test is involved for a given compound, the data are averaged.\n(§8) Plant species employed in these evaluations are reported by header abbreviation, common name and scientific name.\nas §1"}, "[5]": {"system": "MOOVA (Monochoria)", "assay": "Preemergence weed control under flooded paddy conditions", "format": "in vivo, Monochoria vaginalis", "settings": "rated 3-4 weeks after treatment", "in_short": "as §6"}, "[6]": {"system": "GALAP (Galium)", "assay": "Preemergence herbicidal evaluation", "format": "in vivo, Galium aparine", "settings": "rated 4-5 weeks after treatment", "excerpt": "as §1, §2, §3"}, "[7]": {"system": "SETVI (Foxtail, Green)", "assay": "Preemergence herbicidal evaluation", "format": "in vivo, Setaria viridis", "settings": "rated 4-5 weeks after treatment", "excerpt": "as §1, §2, §3"}, "[8]": {"system": "SAGPY (Arrowhead (Pygmaea))", "assay": "Preemergence weed control under flooded paddy conditions", "format": "in vivo, Sagittaria pygmaea", "settings": "rated 3-4 weeks after treatment", "experimental": "as §1, §4, §5"}, "[9]": {"system": "CASOB (Sicklepod)", "assay": "Postemergence herbicidal evaluation", "format": "in vivo, Cassia obtusifolia", "settings": "postemergence", "experimental": "as §7, §8, §1"}, "[10]": {"system": "AMBEL (Ragweed, Common)", "assay": "Postemergence herbicidal evaluation", "format": "in vivo, Ambrosia artemisifolia", "settings": "postemergence", "in_short": "(§9)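 Scores (0–9) reflect plant stand, vigor, malformation, size, chlorosis and general appearance relative to control, read 4 to 5 weeks after treatment and averaged where tests were repeated. Application: about 0.0156–0.500 kg/ha sprayed at 40 psi onto two-week seedlings.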"}, "[11]": {"system": "TRZAWR (Wheat, Winter, cv Riband)", "assay": "Postemergence herbicidal evaluation", "format": "in vivo, Triticum aestivum", "settings": "postemergence", "in_short": "as §9"}, "[12]": {"system": "GLXMAW (Soybean, Williams)", "assay": "Postemergence herbicidal evaluation", "format": "in vivo, Glycine max, (L.) Merr. cv Williams", "settings": "postemergence", "in_short": "as §9"}},
  "data": [
    {"compound": "COC(=O)COC(=O)CN1C(=O)CSC1=Nc1cc(-n2c(=O)cc(C(F)(F)F)n(C)c2=O)c(F)cc1Cl", "note": "[Compound 108, 2-{{2-Chloro-5-[3,6-dihydro-3-methyl-2,6-dioxo-4-(trifluoromethyl)-1(2H)-pyrimidinyl]-4-fluorophenyl}imino}-4-oxo-3-thiazolidineacetic acid, ester with methyl glycolate]", "values": [
      {"measurement": "Preemergence herbicidal rating ORYSAT", "setting": "[1]; rate 0.0156 kg/ha", "value": 0.0},
      {"measurement": "Preemergence herbicidal rating ORYSAT", "setting": "[1]; rate 0.0313 kg/ha", "value": 0.0},
      {"measurement": "Preemergence herbicidal rating ORYSAT", "setting": "[1]; rate 0.0625 kg/ha", "value": 0.0},
      {"measurement": "Preemergence herbicidal rating ORYSAT", "setting": "[1]; rate 0.1250 kg/ha", "value": 1.0},
      {"measurement": "Preemergence herbicidal rating ORYSAT", "setting": "[1]; rate 0.2500 kg/ha", "value": 5.0},
      {"measurement": "ECHORC herbicidal effect rating", "setting": "[2]; 0.0313 kg/ha", "value": 0.0},
      {"measurement": "ECHORC herbicidal effect rating", "setting": "[2]; 0.0625 kg/ha", "value": 0.0},
      {"measurement": "ECHORC herbicidal effect rating", "setting": "[2]; 0.1250 kg/ha", "value": 0.0},
      {"measurement": "ECHORC herbicidal effect rating", "setting": "[2]; 0.2500 kg/ha", "value": 0.0},
      {"measurement": "CYPSE herbicidal effect rating", "setting": "[3]; 0.0313 kg/ha", "value": 0.0},
      {"measurement": "CYPSE herbicidal effect rating", "setting": "[3]; 0.0625 kg/ha", "value": 0.0},
      {"measurement": "CYPSE herbicidal effect rating", "setting": "[3]; 0.1250 kg/ha", "value": 0.0},
      {"measurement": "Herbicidal rating GALAP", "setting": "[4]; rate 0.0158 kg/ha", "value": 1.0},
      {"measurement": "Herbicidal rating GALAP", "setting": "[4]; rate 0.0315 kg/ha", "value": 1.0},
      {"measurement": "Herbicidal rating GALAP", "setting": "[4]; rate 0.0630 kg/ha", "value": 3.0},
      {"measurement": "MOOVA herbicidal effect rating", "setting": "[5]; 0.0313 kg/ha", "value": 9.0},
      {"measurement": "MOOVA herbicidal effect rating", "setting": "[5]; 0.0625 kg/ha", "value": 9.0},
      {"measurement": "MOOVA herbicidal effect rating", "setting": "[5]; 0.1250 kg/ha", "value": 9.0},
      {"measurement": "MOOVA herbicidal effect rating", "setting": "[5]; 0.2500 kg/ha", "value": 9.0},
      {"measurement": "Preemergence herbicidal rating GALAP", "setting": "[6]; rate 0.0156 kg/ha", "value": 1.0},
      {"measurement": "Preemergence herbicidal rating GALAP", "setting": "[6]; rate 0.0313 kg/ha", "value": 2.0},
      {"measurement": "Preemergence herbicidal rating GALAP", "setting": "[6]; rate 0.0625 kg/ha", "value": 6.0},
      {"measurement": "Preemergence herbicidal rating GALAP", "setting": "[6]; rate 0.1250 kg/ha", "value": 7.0},
      {"measurement": "Preemergence herbicidal rating GALAP", "setting": "[6]; rate 0.2500 kg/ha", "value": 9.0},
      {"measurement": "Preemergence herbicidal rating SETVI", "setting": "[7]; rate 0.0156 kg/ha", "value": 0.0},
      {"measurement": "Preemergence herbicidal rating SETVI", "setting": "[7]; rate 0.0313 kg/ha", "value": 0.0},
      {"measurement": "Preemergence herbicidal rating SETVI", "setting": "[7]; rate 0.0625 kg/ha", "value": 1.0},
      {"measurement": "Preemergence herbicidal rating SETVI", "setting": "[7]; rate 0.1250 kg/ha", "value": 7.0},
      {"measurement": "Preemergence herbicidal rating SETVI", "setting": "[7]; rate 0.2500 kg/ha", "value": 9.0},
      {"measurement": "SAGPY herbicidal effect rating", "setting": "[8]; 0.0313 kg/ha", "value": 0.0},
      {"measurement": "SAGPY herbicidal effect rating", "setting": "[8]; 0.0625 kg/ha", "value": 0.0},
      {"measurement": "SAGPY herbicidal effect rating", "setting": "[8]; 0.1250 kg/ha", "value": 3.0},
      {"measurement": "SAGPY herbicidal effect rating", "setting": "[8]; 0.2500 kg/ha", "value": 6.0},
      {"measurement": "Herbicidal rating CASOB", "setting": "[9]; rate 0.0158 kg/ha", "value": 1.0},
      {"measurement": "Herbicidal rating CASOB", "setting": "[9]; rate 0.0315 kg/ha", "value": 1.0},
      {"measurement": "Herbicidal rating CASOB", "setting": "[9]; rate 0.0630 kg/ha", "value": 1.0},
      {"measurement": "Herbicidal rating AMBEL", "setting": "[10]; rate 0.0158 kg/ha", "value": 4.0},
      {"measurement": "Herbicidal rating AMBEL", "setting": "[10]; rate 0.0315 kg/ha", "value": 5.0},
      {"measurement": "Herbicidal rating AMBEL", "setting": "[10]; rate 0.0630 kg/ha", "value": 5.0},
      {"measurement": "Herbicidal rating TRZAWR", "setting": "[11]; rate 0.0158 kg/ha", "value": 3.0},
      {"measurement": "Herbicidal rating TRZAWR", "setting": "[11]; rate 0.0315 kg/ha", "value": 3.5},
      {"measurement": "Herbicidal rating TRZAWR", "setting": "[11]; rate 0.0630 kg/ha", "value": 4.5},
      {"measurement": "Herbicidal rating GLXMAW", "setting": "[12]; rate 0.0158 kg/ha", "value": 5.0},
      {"measurement": "Herbicidal rating GLXMAW", "setting": "[12]; rate 0.0315 kg/ha", "value": 5.5},
      {"measurement": "Herbicidal rating GLXMAW", "setting": "[12]; rate 0.0630 kg/ha", "value": 6.0}
    ]}
  ]
}
